This series in a line: Hydrophilicity of BM1. The series is classed as physicochemical.

The structures appear in SMILES notation.

`C[C@@H](O)[C@H](NC(=O)Nc1ncnc2c1ncn2[C@@H]1O[C@H](CO)C(O)C1O)C(=O)O` (stereo partly drawn) [BM1, N6-Carbamoylthreonyl-D-adenosine]: the Hydrophilicity entry was “very hydrophilic”.

(Values after patent publication US20230236206A1, “PREDICTING A SEPSIS CONDITION” (PHARM-ANALYT LABOR GMBH, priority 2020, published 2023).)
